The results in this text go back to patent US8026211B2, “Methods and formulations for increasing intestinal function” (Technion Research & Development Foundation Ltd., priority 2004, dated 2011).

The test system of one assay is infants with SBS. The assay is described as follows: Oral insulin supplementation in infants with SBS (clinical evaluation). The assay is classed as in vivo, human. The text has this:
1. Infants with less than 30 cm of small intestine (with ileo-cecal valve intact).
2. Infants with less than 40 cm without ileo-cecal valve.
3. Infants and children younger than 10 years of age, with SBS who are […] nutrition dependent and are not expected to be weaned of […] nutrition
Exclusion criteria: Infants in an unstable condition such as sepsis, acute gastroenteritis, pneumonia.
Dosage: 1 unit of insulin (Actrapid, Novonordisk, Denmark)/kg body weight per dose×4/day (every 6 hours) was administered for 28 days. Insulin was administered every six hours. Insulin will be provided as 1 u/ml of 0.45 NaCl orally.
Glucose monitoring: Following the first insulin dose, blood glucose levels were measured, immediately prior to the first and second meal following the first dose of insulin. Measurements were repeated for the first three days following supplementation and then weekly (days 7, 14, 21 and 28)
The clinical evaluation of the patients' conditions included the following parameters:
1. Weight, length, head circumference, MAC (mid arm circumference), TSF (triceps skin fold)—weekly
3. […] intake of calories, carbohydrates, lipids
4. Blood concentration levels of glucose, albumin, ALT, AST, GGT, ALP, total cholesterol, triglycerides (fasting), HDL-cholesterol, insulin (fasting, before insulin administration)
5. Blood amino acid levels
6. Insulin antibodies. 1 ml of serum was removed prior to treatment and at day 28 following treatment. The samples were frozen at −70° C. and sent, on dry ice, to Division of Pediatric Gastroenterology and Nutrition, Meyer Children's Hospital of Haifa, Bat-Galim 31096, Haifa for analysis.

The test system of assay [1] is ischemia-reperfusion (IR) injury in rats. Description: Rat ischemia-reperfusion injury: survival and intestinal mucosal parameters (bowel and mucosal weight, DNA, protein). The format is in vivo. The protocol: Animals: Animals were obtained from the Rappaport Faculty of Medicine (Technion, Haifa, Israel). Male rats weighing 240-260 g were kept in individual stainless steel cages at constant temperature and humidity, and a 12-hour light-dark cycle was maintained. Rats were fasted 12 hours prior to the experiment with free access to water.
(§1) Surgical procedure: Following overnight fasting, the animals were anesthetized with intraperitoneal injection of pentobarbital (IP 40 mg/kg). Using sterile techniques, the abdomen was opened using a midline incision. […] IR underwent laparotomy, mobilization and occlusion of SMA and portal vein by vascular clamp for 30 minutes followed by a reperfusion period of 24 hours. Before closure of the abdomen, the rats were resuscitated with a 3-ml intraperitoneal injection of warm 0.9% saline. For all operations, the abdominal cavity was closed in two layers with a running suture of Dexon “S” Polyglycolic Acid 3/0. Rats were allowed free access to water and food. Twenty-four hours later, the rats were anesthetized with intraperitoneal pentobarbital (75 mg/kg) and were sacrificed by open pneumothorax.
Intestinal Mucosal Parameters: The small intestine from the pylorus to the ileo-cecal valve was removed and divided into two segments: proximal jejunum and distal ileum. The intestine was split on the antimesenteric border, washed with cold saline, dried, and each segment was weighed. The mucosa was scraped from the underlying tissue with a glass slide and weighed. Bowel and mucosal weights were calculated as mg/cm bowel length/100 g body weight. Mucosal samples were homogenized with TRIzol reagent (Rhenium LTD, Jerusalem). DNA and protein were extracted by the method of Chomczynski [BioTechniques. 15:532, 1993] and were expressed as micrograms per centimeter of bowel per 100 g of body weight. In brief, 100 mg tissue was mixed with 1 ml of TRIzol reagent and homogenized for 2 min. Following a three minute incubation period and centrifugation the contents separated into three phases. DNA was isolated from the interphase using ethanol, washed with sodium citrate and was stabilised with 75% ethanol. Protein was isolated from the lower phase using isopropyl alcohol, washed with guanidine hydrochloride, and stabilised with 100% ethanol. Quantitation of DNA was performed with a spectrophotomer. Concentration of the final protein concentration was detected using Bio-Rad Protein Assay technique.
Statistical analysis: All data are given as mean±SD. Differences between experimental groups were tested for statistical significance (p<0.05) using the nonparametric Kruskal-Wallis ANOVA test, followed by the corrected Mann-Whitney test.

For assay [2] the test system is unchanged. Description: Rat ischemia-reperfusion injury: intestinal histology (villus height, crypt depth, Park's injury grade). The assay is classed as in vivo. On the procedure:
as §1
Intestinal Histology: Intestinal samples from the proximal jejunum and distal ileum were fixed in 10% formalin, dehydrated in progressive concentrations of ethanol, cleared in xylene, and embedded in paraffin wax. Deparaffinized […] sections were stained with haematoxylin and eosin. Ten villi and crypts were selected for the microscopic analysis, using a 10×4 magnifying lens. Histological images were loaded on a 760×570 pixels resolution buffer using a computerized image analysis system composed of a trichip RGB video-camera (Sony, Japan), installed on a light microscope (Zeiss, Germany) and attached to an IBM compatible personal computer (Pentium III, MMX, 450 mhz, 125 MB RAM), equipped with a frame grabber. […] The villus height and crypt depth were measured using the Image Pro Plus 4 image analysis software (Media Cybernetics, Baltimore, Md., USA).
The degree of intestinal tissue injury was evaluated on a grading scale from 0 to 8 as described previously by Park et al., [Surgery. 107: 574, 1990]: 0—normal mucosa, 1—subepithelial space at villus tip, 2—more extended subepithelial space, 3—epithelial lifting along villus sides, 4—denuded villi, 5—loss of villus tissue, 6—crypt layer infarction, 7—transmucosal infarction, 8—transmural infarction.

Assay [3] concerns jejunal and ileal crypt cells. The assay is described as follows: Rat ischemia-reperfusion injury: crypt cell proliferation (5-BrdU). The format is in vivo. As to conditions: IR rats, oral insulin, p<0.05. The protocol: as §1
Enterocyte proliferation and apoptosis: Crypt cell proliferation was assessed using 5-bromodeoxyuridine (5-BrdU). Standard BrdU labeling reagent (Zymed Laboratories, Inc, San Francisco, Calif.) was injected intraperitoneally at a concentration of 1 ml/100 g body weight 2 hours prior to sacrifice. […] An index of proliferation was determined as the ratio of crypt cells staining positively for BrdU per 10 crypts.

Setting [4] is: infant with SBS, oral insulin started, within a few days after initiation.
The mark [5] stands for this setting: IR-INS rats, 24 h reperfusion, IR 18±3, p<0.05.

As for insulin, the stool output entry with infants with SBS (human infants with SBS, oral insulin 1 unit/kg per dose x4/day) is recorded as “reduced stool output”. In addition, in the assay with infants with SBS (setting [4]), the jaundice result is reported as “decrease in jaundice”, the “need for parenteral nutrition” value is reported as “reduced need for parenteral nutrition” and the oral feeds result is recorded as “increase in oral feeds”. The clinical outcome in the assay on infants with SBS (infant with SBS, three months following the addition of insulin) was “discharged from hospital, thriving and on full oral feeds”. The parenteral nutrition status entry with infants with SBS (infant with SBS, two months following the addition of oral insulin) was “parenteral nutrition was stopped”. The post-operative mortality entry in assay [1] (IR rats, insulin in drinking water (2%) 3 days prior to and 24 hours following IR) is on record as “no effect”. This substance had an ileal mucosal weight in assay [1] (IR-INS rats, 24 h reperfusion, IR 5.9±0.6, p<0.05) of 7.3±0.4 mg/cm/100 g. The jejunal mucosal weight in assay [1] (IR-INS rats, 24 h reperfusion, IR 7.0±0.6, p<0.05) is 8.9±0.6 mg/cm/100 g. Also, in assay [1] (setting [5]), the “mucosal protein in ileum” value is on record as 25±2 μg/cm/100 g and the “mucosal protein in jejunum” value is 28±3 μg/cm/100 g. In addition, the “jejunal intestinal (bowel) weight” value in assay [1] (IR-INS rats, 24 h reperfusion, IR 20.1±0.7, p<0.05) came out at 23±0.8 mg/cm/100 g. Besides, the “intestinal injury grade (Park's criteria) in jejunum and ileum” value in assay [2] (IR rats, oral insulin, vs IR-animals) is reported as “did not significantly change”. Also, the ileal crypt depth in assay [2] (insulin treated IR rats, IR 131±7, p<0.05) was determined as 219±11 μm. For the same substance, in assay [2] (insulin treated IR rats, IR 167±8, p<0.05), the jejunal crypt depth came out at 264±13 μm. Further, in assay [2] (insulin treated IR rats, IR 225±25, p<0.05), the ileal villus height is reported as 421±40 μm. Also, the jejunal villus height in assay [2] (insulin treated IR rats, IR 341±29, p<0.05) worked out at 622±91 μm. Besides, the “enterocyte proliferation index in ileum” value in assay [3] (IR 173±8) was 289±26 BrdU positive cells/10 crypts. Besides, the “enterocyte proliferation index in jejunum” value in assay [3] (IR 212±18) is given as 298±21 BrdU positive cells/10 crypts.
